Here are results for 3 molecules from patent US20180353521A1, “METHOD FOR TREATING STROKE OR REDUCING NERVE INJURY” (priority 2017, published 2018).

For assay [1], the system named is Middle Cerebral Artery Occlusion, MCAO/Reperfusion Model (ischemic stroke). Kind of assay: Neurobehavioral assessment after MCAO surgery. Particulars: 50 mg/kg given 10 minutes before MCAO, 24 hours after MCAO surgery, Student's T test vs Vehicle, FIG. 3.
Text: (§1) Test animals (250-350 g of male SD rats in this example) were anesthetized with 2% isoflurane in N2O/O2 (70%/30%). The right common carotid artery (right CCA), external carotid artery (ECA), and internal carotid artery (ICA) were isolated.
(§2) Cutting along the midline of the scalp, the nylon monofilament (the front of the nylon monofilament was covered with polysiloxane) was inserted through the external carotid artery along the internal carotid artery and extending to circle of Willis of the brain, resulting in obstruction of the middle cerebral artery. After an hour of ischemia, the nylon monofilament was removed and the brain's blood was reperfused.
(§3) The above-mentioned prevention model experiment further comprised a blank control group (sham) which were undergone no MCAO surgery and administered without the compound; and a vehicle control group (Vehicle) which was undergone MCAO surgery and administered with water in place of the compound.
Neurobehavioral assessment in one embodiment of the present invention was performed on the rats at 0.5, 1.5 and 24 hours after MCAO surgery on each group of rats, and scored according to the following states.
Score 0: lifting the rat by its tail to about 20 to 30 cm above the ground and observing the state of stretching the forelimbs, at which state the forelimb of the rat could stretch towards the ground with balance and no occurrences of other nerve injuries is shown in FIG. 2(A), representing the normal rat.
Score 1: lifting the rat by its tail to about 20 to 30 cm above the ground and observing the state of stretching the forelimb.
Score 2: the rat was placed on the ground and a lateral thrust was applied. The resistance of the rat to the thrust ipsilateral to the damaged area of the brain was decreased.
Score 3: the rat continued to go around in circles towards the contralateral side of damaged area of the brain and incapable of going straight when it was set free to exercise.
The Student's T test was adopted to determine whether there was difference between the groups administered with each compound and the Vehicle group. If the p value was less than or equal to 0.05, it represented significant difference.
The test system is the same in assay [2]. As to the kind of experiment: Analysis of brain infarct region (TTC staining) after MCAO. Particulars: 50 mg/kg given 10 minutes before MCAO; for reduction of brain infarct volume vs vehicle control group: Student's T test; for reduction of infarct size at positions from the front end of the brain: brain taken 24 hours after MCAO, 2 mm slices, FIG. 4B. Type of assay: in vivo, male SD rats.

Assay [3] is described as follows: Weight analysis in MCAO/reperfusion model. The following applies: 24 hours after MCAO surgery, 50 mg/kg; for retardation in body weight decrease vs vehicle control group: FIG. 5; for body weight, AVG, 24 hr: average value.
Text: as §1, §2, §3

“Also recorded” adds a separate entry of the source.

In the case of `COc1cc(C)c(OC)c2c1OCO2` [AR-04-15S, 4,7-Dimethoxy-5-methyl-1,3-benzodioxole], in assay [1] (listed as AR-04-155), the “nerve injury (neurobehavioral assessment score) vs Vehicle” value (from here on “nerve injury … vs Vehicle”) is given as “recovery tendency; also recorded: significant effects in reducing nerve injury”. For the same molecule, in assay [2] (24 hours after MCAO, FIG. 4C, listed as AR-04-155), the “reduction of brain infarct volume vs vehicle control group” value (“reduction of brain infarct volume” below) was “significant effects in reducing the infarct; also recorded: statistically significant effect in reducing the brain infarct volume”. Further, in assay [2], the “reduction of infarct size at positions from the front end of the brain” value (shortened to “reduction of infarct size at positions”) is “significant effect in reducing the infarct size at 7 mm, 9 mm and 11 mm”. Besides, in assay [3], the “retardation in body weight decrease vs vehicle control group” value is on record as “significant retardation in body weight decrease” and the “body weight, AVG, 24 hr” value is reported as 243.2.
With `C=C(CC[C@@H](C(=O)O)[C@H]1CC[C@@]2(C)C3=CC[C@H]4C(C)(C)[C@@H](O)CC[C@]4(C)C3=CC[C@]12C)C(C)C` [AR-04-41S, dehydroeburicoic acid], the “nerve injury … vs Vehicle” value in assay [1] is reported as “statistically significant in efficacy; also recorded: statistically significant effect in reducing nerve injury”; in assay [1] (listed as AR-04-415) it was “recovery tendency”. For the same molecule, in assay [2] (24 hours after MCAO, FIG. 4C), the “total infarct volume (%) of the brain” value is reported as “less than 10%”. The “reduction of brain infarct volume” value is listed as “statistically significant effect in reducing the brain infarct volume” in assay [2] (24 hours after MCAO, FIG. 4C) and “best effect on reducing the infarct volume” in assay [2] (24 hours after MCAO, FIG. 4C, listed as AR-04-415). The “reduction of infarct size at positions” value in assay [2] is “significant effect in reducing the infarct size at 3 mm, 7 mm, 9 mm, 11 mm, and 13 mm; also recorded: better efficacy at 7 mm”. The “body weight, AVG, 24 hr” value in assay [3] came to 266.5.
For the molecule `C=C(CC[C@@H](C(=O)O)[C@H]1C[C@H](O)[C@@]2(C)C3=CC[C@H]4C(C)(C)[C@@H](O)CC[C@]4(C)C3=CC[C@]12C)C(C)C` [AR-04-1822S, dehydrosulphurenic acid (dehydrosulfurenic acid)], the “nerve injury … vs Vehicle” value in assay [1] was “statistically significant in efficacy”; in assay [1] (listed as AR-04-18225), “recovery tendency; also recorded: statistically significant effect in reducing nerve injury”. The “reduction of brain infarct volume” value is “significant effects in reducing the infarct” in assay [2] (24 hours after MCAO, FIG. 4C) and “statistically significant effect in reducing the brain infarct volume” in assay [2] (24 hours after MCAO, FIG. 4C, listed as AR-04-18225). In assay [2] (listed as AR-04-18225), the “reduction of infarct size at positions” value is “significant effect in reducing the infarct size at 3 mm, 5 mm, 7 mm, 9 mm, 11 mm, and 13 mm; also recorded: significantly better effect in reducing the infarct size at 7 mm and 9 mm”. In addition, the “retardation in body weight decrease vs vehicle control group” value in assay [3] is “significant retardation in body weight decrease”. Moreover, the “body weight, AVG, 24 hr” value in assay [3] is reported as 270.0.
